From ChEMBL document CHEMBL6134792, “Discovery of selective LATS inhibitors via scaffold hopping: enhancing drug-likeness and kinase selectivity for potential applications in regenerative medicine” (RSC Med Chem, 2024)

Assay: Clearance in male mouse at 20 mg/kg, po or 5 mg/kg, iv by LC-MS/MS analysis
Assay type: ADME, organism-based
Conditions: in vivo

CL: 28.3 mL/min/kg
Structure (SMILES): O=C(/N=c1\sccn1Cc1ccccc1)c1n[nH]c2ncccc12
